The target in one test is T1, human orexin-2 receptor (Homo sapiens, UniProt O43614).
T1 construct: expressed in transfected cells; host or cells: CHO cells
T1 sequence (O43614 1-444): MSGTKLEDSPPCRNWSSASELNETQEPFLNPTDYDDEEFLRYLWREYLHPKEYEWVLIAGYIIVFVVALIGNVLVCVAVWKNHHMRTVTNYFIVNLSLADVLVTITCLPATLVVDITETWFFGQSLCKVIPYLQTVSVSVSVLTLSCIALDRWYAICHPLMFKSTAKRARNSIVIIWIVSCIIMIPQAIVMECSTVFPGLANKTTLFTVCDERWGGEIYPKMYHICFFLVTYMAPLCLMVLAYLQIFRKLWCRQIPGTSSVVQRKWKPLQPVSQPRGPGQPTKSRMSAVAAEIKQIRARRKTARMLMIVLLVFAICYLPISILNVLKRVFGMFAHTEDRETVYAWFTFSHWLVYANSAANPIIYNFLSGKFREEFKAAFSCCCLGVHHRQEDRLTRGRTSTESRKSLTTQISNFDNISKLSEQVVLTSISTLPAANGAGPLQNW
Briefly: FLIPR Ca2+ Flux Assay, CHO cells expressing the human orexin-2 receptor. The format is cell-based. The conditions noted are these: agonist 70 pM Ala-6,12 orexin-A, read-out: hOX2R FLIPR IC50. As to the method: The utility of the compounds in accordance with the present invention as orexin receptor OX1R and/or OX2R antagonists may be readily determined without undue experimentation by methodology well known in the art, including the “FLIPR Ca^2+ Flux Assay” (Okumura et al., Biochem. Biophys. Res. Comm. 280:976-981, 2001). In a typical experiment the OX1 and OX2 receptor antagonistic activity of the compounds of the present invention was determined in accordance with the following experimental method. For intracellular calcium measurements, Chinese hamster ovary (CHO) cells expressing the rat orexin-1 receptor or the human orexin-2 receptor, are grown in Iscove's modified DMEM containing 2 mM L-glutamine, […], 1% hypoxanthine-thymidine supplement, 100 U/ml penicillin, 100 μg/ml streptomycin and 10% heat-inactivated fetal calf serum (FCS). The cells are seeded at 20,000 cells/well into Becton-Dickinson black 384-well clear bottom sterile plates coated with poly-D-lysine. All reagents were from GIBCO-Invitrogen Corp. The seeded plates are incubated overnight at 37° C. and 5% CO2. Ala-6,12 human orexin-A as the agonist is prepared as a 1 mM stock solution in 1% bovine serum albumin (BSA) and diluted in assay buffer (HBSS containing 20 mM HEPES, 0.1% BSA and 2.5 mM probenecid, pH7.4) for use in the assay at a final concentration of 70 pM. Test compounds are prepared as 10 mM stock solution in DMSO, then diluted in 384-well plates, first in DMSO, then assay buffer. On the day of the assay, cells are washed 3 times with 100 μl assay buffer and then incubated for 60 min (37° C., 5% CO2) in 60 μl assay buffer containing 1 μM Fluo-4AM ester, 0.02% pluronic acid, and 1% BSA. The dye loading solution is then aspirated and cells are washed 3 times with 100 μl assay buffer. 30 μl of that same buffer is left in each well. Within the Fluorescent Imaging Plate Reader (FLIPR, Molecular Devices), test compounds are added to the plate in a volume of 25 μl, incubated for 5 min and finally 25 μl of agonist is added. Fluorescence is measured for each well at 1 second intervals for 5 minutes and the height of each fluorescence peak is compared to the height of the fluorescence peak induced by 70 pM Ala-6,12 orexin-A with buffer in place of antagonist. For each antagonist, IC50 value (the concentration of compound needed to inhibit 50% of the agonist response) is determined. Alternatively, compound potency can be assessed by a radioligand binding assay (described in Bergman et. al. Bioorg. Med. Chem. Lett. 2008, 18, 1425-1430) in which the inhibition constant (Ki) is determined in membranes prepared from CHO cells expressing either the OX1 or OX2 receptor. The intrinsic orexin receptor antagonist activity of a compound which may be used in the present invention may be determined by these assays.
In general terms: Calcium flux is commonly read through the fluorescence of an indicator in the cells.

The target in a further test is T2, hOX1R (Homo sapiens, UniProt O43613).
T2 construct: expressed in transfected cells; host or cells: CHO cells
T2 sequence (O43613 1-425): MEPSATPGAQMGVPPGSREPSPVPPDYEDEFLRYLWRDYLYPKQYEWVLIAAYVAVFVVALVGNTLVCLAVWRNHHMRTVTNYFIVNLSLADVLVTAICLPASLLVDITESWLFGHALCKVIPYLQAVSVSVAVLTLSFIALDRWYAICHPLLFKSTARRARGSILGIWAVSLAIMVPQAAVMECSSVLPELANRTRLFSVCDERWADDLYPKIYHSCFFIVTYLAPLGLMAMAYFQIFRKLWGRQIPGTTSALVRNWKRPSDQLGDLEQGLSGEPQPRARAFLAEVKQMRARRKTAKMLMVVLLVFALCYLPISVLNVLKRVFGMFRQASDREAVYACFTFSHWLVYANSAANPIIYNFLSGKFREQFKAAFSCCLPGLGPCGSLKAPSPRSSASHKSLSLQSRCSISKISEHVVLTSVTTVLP
Nature of the test: FLIPR Ca2+ Flux Assay, CHO cells expressing the orexin-1 receptor. Type of test: cell-based. The conditions noted are these: agonist 70 pM Ala-6,12 orexin-A.

Each structure is given as a SMILES string.

Usually IC50 stands for the concentration that gives 50% inhibition.

For `COC(=O)c1c(OC)ccnc1N[C@@H]1CC[C@@H](C)N(C(=O)c2ncccc2-c2ncccn2)C1` [Example 18, methyl 4-methoxy-2-({(3R,6R)-6-methyl-1-[(3-pyrimidin-2-ylpyridin-2-yl)carbonyl]piperidin-3-yl}amino)pyridine-3-carboxylate], the IC50 on human orexin-2 receptor was found to be 168 nM; at hOX1R, 338 nM.

As for `COC(=O)c1c(C#N)ccnc1N[C@@H]1CC[C@@H](C)N(C(=O)c2ccccc2-n2nccn2)C1` [Example 19, Methyl 4-cyano-2-{[(3R,6R)-6-methyl-1-{[2-(2H-1,2,3-triazol-2-yl)phenyl]carbonyl}-piperidin-3-yl]amino}pyridine-3-carboxylate], the IC50 is 24 nM on human orexin-2 receptor and 43 nM on hOX1R.

Turning to `COC(=O)c1c(C#N)ccnc1N[C@@H]1CC[C@@H](C)N(C(=O)c2ccccc2-c2ncccn2)C1` [Example 20, Methyl 4-cyano-2-({(3R,6R)-6-methyl-1-[(2-pyrimidin-2-ylphenyl)carbonyl]piperidin-3-yl}amino)pyridine-3-carboxylate], the IC50 on human orexin-2 receptor was 48 nM; on hOX1R it was 86 nM.

These data come from patent US9676751B2, “2-amino-3-ester-pyridl orexin receptor antagonists” (MERCK SHARP & DOHME CORP., priority 2013, dated 2017).
